Where two headings read alike, the source gives them in different places.
Key:
[1] = system: p21 induction in HCT 116 cells; test: p21 induction in cells (In-Cell Western, p21/GAPDH ratio); format: cell-based; conditions: 24 h compound incubation, read-out: P21_EC50
Method: Example 3: Method for Determining Effect on p21 Induction in Cells
The colon carcinoma cell line HCT 116 was obtained from ATCC and cultured in growth medium consisting of Mccoy's 5A Medium (Gibco 16600108) supplemented with 10% FBS (Transgene FS201-02) and 100 units/mL penicillin-streptomycin (Gibco 15140122) and maintained at 37° C. under 5% CO2. On the day of seeding, 2,000 cells in 30 μL of culture media were plated per well to Poly-D-Lysine 384 Well Black Clear Plates (Biocoat 356663) and incubated overnight at 37° C. under 5% CO2. The following day, compounds were serially diluted in DMSO for a total of 11 test concentrations. The typical starting concentration of compounds was 10 μM with 2-fold dilutions. Next, 150 nL of diluted compound was added in duplicate to the assay plate, using an Echo 655 (Labcyte). The plate was centrifuged at 500 RPM for 1 min and then incubated at 37° C. under 5% CO2 for 24 h. After 24h, medium was removed, and cells were fixed by adding 40 μL of 4% paraformaldehyde solution to each well and incubated for 20 min at room temperature. The plate was then washed 4 times with 100 μL per well of wash buffer (PBS with 0.1% Tween-20) using a microplate washer. Next, 30 μL of ice-cold methanol was added to each well and the plate was incubated at −20° C. for 10 min. The plate was washed 4 times with 100 μL per well of wash buffer by a microplate washer, then 30 μL per well of blocking buffer (Intercept PBS blocking buffer (LI-COR 927-70001) with 0.05% Tween-20) was added and the plate was incubated at room temperature with shaking for 2h. Next, to each test well, 20 μL of primary antibody solution (p21 Waf1/CIP (12D1) RabbitmAb (Cell Signaling Technologies 2947) diluted 1:1000 and GAPDH (D4C6R) Mouse mAb (Cell Signaling Technologies 97166) diluted 1:2000 in blocking buffer) was added and the plate was placed at 4° C., overnight. The following day, the plate was washed 5 times with 100 μL per well of wash buffer using a microplate washer for 5 min. 20 μL per well of secondary antibody (IRDye 680CW Goat anti-Mouse IgG (H+L) (LI-COR 926-68070) diluted 1: 2000 in Blocking Buffer and IRDye 800CW Goat anti-Rabbit IgG (H+L) (LI-COR 926-32211) diluted 1: 2000 in Blocking Buffer) was then added and the plate was stored for 2h in the dark at room temperature with shaking. The plate was then washed 4 times with 100 μL per well of wash buffer again using a microplate washer. Finally, the p21 signal and the GAPDH signal were quantified using a LI-COR Odyssey CLx Imager machine reading at 800 nm and 700 nm, respectively. Each plate contained DMSO control (low control) and an internal reference WRN inhibitor (high control) respectively. For quantitation, the 800 nm/700 nm ratio was calculated for each well to give fold p21 induction and then percent activation for each compound well was calculated as follows (100×(ratio cpd well−ratio low control)/(ratio high control−ratio low control)). EC50 values for each compound were generated after non-linear regression curve fitting using commercially available software.

[2] = target: T1, human Werner helicase (WRN, Uniprot Q14191, amino acids 517-1235 with L1074F point mutation; WRN-BV08) (Homo sapiens, UniProt Q14191, L1074F); test: WRN (BV08) ADP-Glo assay; format: biochemical; conditions: WRN-BV08 (aa 517-1235, L1074F); read-out: ADP-Glo_hWRN_IC50
T1 construct: Uniprot Q14191, amino acids 517-1235 with L1074F point mutation; 8xHis (C, cleaved yes); TEV cleavage site (ENLYFQG) (C, cleaved yes); made in house; host or cells: Sf9 insect cells (baculovirus, pFastBac)
T1 sequence (Q14191 with tags, fused parts or gaps L1074F): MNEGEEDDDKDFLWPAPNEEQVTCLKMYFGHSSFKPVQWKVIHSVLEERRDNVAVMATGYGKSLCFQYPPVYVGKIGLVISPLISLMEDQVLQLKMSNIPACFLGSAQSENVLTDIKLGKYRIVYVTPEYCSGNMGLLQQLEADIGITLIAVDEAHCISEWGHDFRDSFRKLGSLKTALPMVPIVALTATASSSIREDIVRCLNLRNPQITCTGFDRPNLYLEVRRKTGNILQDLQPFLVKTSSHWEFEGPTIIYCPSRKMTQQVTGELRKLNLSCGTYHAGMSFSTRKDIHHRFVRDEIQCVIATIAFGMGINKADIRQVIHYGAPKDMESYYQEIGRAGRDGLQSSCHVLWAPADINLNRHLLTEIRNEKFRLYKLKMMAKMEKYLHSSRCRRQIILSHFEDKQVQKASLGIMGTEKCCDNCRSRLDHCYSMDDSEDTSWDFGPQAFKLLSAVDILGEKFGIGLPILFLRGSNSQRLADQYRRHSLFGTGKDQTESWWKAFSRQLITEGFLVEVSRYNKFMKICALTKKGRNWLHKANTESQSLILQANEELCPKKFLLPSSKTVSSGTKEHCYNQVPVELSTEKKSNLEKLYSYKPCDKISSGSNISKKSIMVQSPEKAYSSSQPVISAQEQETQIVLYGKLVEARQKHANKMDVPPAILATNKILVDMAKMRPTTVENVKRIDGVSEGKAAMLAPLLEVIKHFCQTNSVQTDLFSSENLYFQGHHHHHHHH
Text: Example 2: WRN (BV08) ADP-Glo Assay Protocol
Bovine skin gelatin (BSG), dimethyl sulfoxide (DMSO), Pluronic F-127 and tris(2-carboxyethyl)phosphine hydrochloride solution (TCEP) were purchased from Sigma-Aldrich (St. Louis, MO) at the highest level of purity possible. Bicine buffer solution was purchased from Alfa Aesar (Tewksbury, MA) and compound NSC-617145 was purchased from Tocris (Minneapolis, MN). DNA duplex was synthesized at BGI (Shenzhen, China) and was composed of strand 1 with the sequence 5′-[…]-3′ (SEQ ID NO.: 1) and strand 2 with the sequence 5′-[…]-3′ (SEQ ID NO.: 2). DNA strands were annealed by heating to 95° C. for 5 minutes followed by slow cooling to room temperature. Compounds in 100% DMSO ([…]) were spotted into a 384-well white polystyrene Optiplate-384 (Perkin Elmer; Waltham, MA) assay plate using a LabCyte Echo 550 (Agilent; Santa Clara, CA). DMSO ([…]) was added to columns 12, rows A-H and column 24, rows I-P for the maximum signal control. Compound NSC-617145 ([…]) was added to columns 12, rows I-P and 24, rows A-H for the minimum signal control (100% inhibition). Compounds/DMSO were preincubated for 15 minutes at 25° C. with […] 2×WRN (BV08), prepared as described below, in assay buffer containing 20 mM Bicine (pH=7.5), 1 mM MgCl2, 10 mM KCl, 0.1% Pluronic F-127, 0.005% BSG, 1 mM TCEP. The reaction was initiated by the addition of […] 2× substrate mixture in assay buffer and incubated for 60 minutes at 25° C. The final concentrations of the assay components were 0.15 nM WRN, […], and 0.1 nM DNA duplex. The final DMSO concentration was 1% and the reference compound concentration (NSC-617145) used for the minimal signal control was […]. The reaction was stopped by the addition of the ADP-Glo Kit components (Promega; Madison, WI) as directed and the relative luminescence units (RLU) were read on an Envision 2104 (Perkin Elmer; Waltham, MA).
% Inhibition Calculation:
Where RLU=relative luminescence units, sample=signal in sample well, and MIN and MAX are the respective minimum and maximum signal controls.
Four-Parameter IC50 Fit Equation:
Where top and bottom are normally allowed to float but may be fixed at 100 or 0 respectively in a 3-parameter fit. Y is the % inhibition and X is the compound concentration.
Molecular Biology and virus production. The DNA encoding human Werner helicase (Uniprot Q14191, amino acids 517-1235 with L1074F point mutation) was generated with codon-optimization for […] expression and subcloned into the pFastBac vector with a TEV cleavable 8×His tag (SEQ ID NO: 5) (WRN—BV08). The baculovirus from the expression plasmid WRN—BV08 was generated from transfection and amplification following the manufacturer's instructions.
Sf9 cells grown in SF900II media were infected with 1:200 WRN—BV08 P2 virus and incubated for protein expression for 72 h at 27° C. The WRN protein was purified using the following protocol. The cell pellets were thawed and resuspended in buffer A (50 mM Tris, pH 7.5, 500 mM NaCl, 1 mM TCEP, 10% Glycerol) supplemented with 0.5% CHAPS, 1 mM PMSF, 1 μg/ml Leupeptin, 1 μg/ml Pepstatin, and the Pierce Universal Nuclease and cocktail tablet. Cleared lysates were loaded onto a Ni Sepharose™ excel column and washed with buffer A and bound protein was eluted with buffer A supplemented with 300 mM imidazole. The eluted protein was dialyzed against buffer A and digested by His-tagged TEV (1:5 ratio) overnight at 4° C. ZnCl2 was added into the sample at final 15 μM before loading onto a second Ni Sepharose™ excel column. Untagged WRN protein was eluted from the column with buffer A supplemented with 20 mM imidazole, dialyzed overnight into buffer B (50 mM Tris, pH 7.5, 1 mM TCEP, 10% Glycerol) supplemented with 150 mM NaCl and loaded onto a Heparin column. Proteins were eluted with a step gradient of buffer B supplemented with 150 mM, 200 mM, 300 mM and 500 mM NaCl. […]

| Compound | EC50 ([1]; Homo sapiens, HCT-116, 24 h) [nM] | IC50 [2] [nM] | EC50 [1] [nM] |
| --- | --- | --- | --- |
| CCc1c(N2CCN(C(=O)c3cnn(C)c3)CC2)c(=O)n2nc(-c3ccnc(OC)c3)nc2n1CC(=O)N[C@@H]1C[C@H]1c1c(F)cccc1F (racemic) [I-244, rac-N-((1R,2S)-2-(2,6-difluorophenyl)cyclopropyl)-2-(5-ethyl-2-(2-methoxypyridin-4-yl)-6-(4-(1-methyl-1H-pyrazole-4-carbonyl)piperazin-1-yl)-7-oxo-[1,2,4]triazolo[1,5-a]pyrimidin-4(7H)-yl)acetamide] | > 5000 | 100 to 500 |  |
| CCc1c(N2CCN(C(=O)c3ncnc(C)c3O)[C@H]3CC[C@@H]32)c(=O)c2nc(N(C)C)cnc2n1CC(=O)NC12CC(C(F)(F)F)(C1)C2 (relative stereo) [I-2, rel-2-(2-(dimethylamino)-6-ethyl-7-((1S,6S)-5-(5-hydroxy-6-methylpyrimidine-4-carbonyl)-2,5-diazabicyclo[4.2.0]octan-2-yl)-8-oxopyrido[2,3-b]pyrazin-5(8H)-yl)-N-(3-(trifluoromethyl)bicyclo[1.1.1]pentan-1-yl)acetamide] | > 5000 | 100 to 500 |  |
| CCc1c(N2CCN(C(=O)c3ncnc(C)c3O)[C@H]3CCC[C@H]32)c(=O)c2nn(-c3ccnc(OC)c3)nc2n1CC(=O)NC12CC(C(C)C)(C1)C2 (relative stereo) [I-93, rel-2-{6-[(4aR,7aS)-4-(5-hydroxy-6-methylpyrimidine-4-carbonyl)-octahydro-1H-cyclopenta[b]pyrazin-1-yl]-5-ethyl-2-(2-methoxypyridin-4-yl)-7-oxo-2H,4H,7H-[1,2,3]triazolo[4,5-b]pyridin-4-yl}-N-[3-(propan-2-yl)bicyclo[1.1.1]pentan-1-yl]acetamide] | 500 to 2000 | 5 to 50 |  |
| CCc1c(N2CCN(C(=O)c3c(OC)ncc(C4CCOC4)c3O)CC2)c(=O)c2nn(-c3ccnc(OC)c3)nc2n1CC(=O)NC12CC(C(C)C)(C1)C2 (single isomer, unassigned) [I-64] | 500 to 2000 | 5 to 50 |  |
| CCc1c(N2CCN(C(=O)c3c(OC)ncc(C4CCOC4)c3O)CC2)c(=O)c2nn(-c3ccnc(OC)c3)nc2n1CC(=O)NC12CC(C(C)C)(C1)C2 (single isomer, unassigned) [I-65] |  | 5 to 50 | ≤ 500 |
| CCc1c(N2CCN(C(=O)c3ncnc(C)c3O)[C@H]3CC[C@@H]32)c(=O)c2nn(C3=CCOCC3)nc2n1CC(=O)NC1CC2(CCC2)C1 [I-185, 2-[2-(3,6-dihydro-2H-pyran-4-yl)-5-ethyl-6-[(1S,6S)-5-(5-hydroxy-6-methylpyrimidine-4-carbonyl)-2,5-diazabicyclo[4.2.0]octan-2-yl]-7-oxo-2H,4H,7H-[1,2,3]triazolo[4,5-b]pyridin-4-yl]-N-{spiro[3.3]heptan-2-yl}acetamide] |  | 5 to 50 |  |
| CCc1c(N2CCN(C(=O)c3c(COC)cccc3OC)[C@H]3CC[C@@H]32)c(=O)c2nn(C3=CCOCC3)nc2n1CC(=O)NC12CC(C3CC3)(C1)C2 [I-199, N-{3-cyclopropylbicyclo[1.1.1]pentan-1-yl}-2-[2-(3,6-dihydro-2H-pyran-4-yl)-5-ethyl-6-[(1S,6S)-5-[2-methoxy-6-(methoxymethyl)benzoyl]-2,5-diazabicyclo[4.2.0]octan-2-yl]-7-oxo-2H,4H,7H-[1,2,3]triazolo[4,5-b]pyridin-4-yl]acetamide] |  | 5 to 50 |  |

More lines, now with the values ahead:

| EC50 ([1]; Homo sapiens, HCT-116, 24 h) [nM] | IC50 [2] [nM] | EC50 [1] [nM] | Compound |
| --- | --- | --- | --- |
| 500 to 2000 | 5 to 50 |  | CCc1c([C@@]23CCN(C(=O)c4ncnc(C)c4O)C[C@@H]2C3)c(=O)c2nn(-c3ccnc(OC)c3)nc2n1CC(=O)NC12CC(C(C)C)(C1)C2 (relative stereo) [I-63, rel-2-{5-ethyl-6-[(1R,6S)-3-(5-hydroxy-6-methylpyrimidine-4-carbonyl)-3-azabicyclo[4.1.0]heptan-6-yl]-2-(2-methoxypyridin-4-yl)-7-oxo-2H,4H,7H-[1,2,3]triazolo[4,5-b]pyridin-4-yl}-N-[3-(propan-2-yl)bicyclo[1.1.1]pentan-1-yl]acetamide] |
| ≤ 500 | 5 to 50 |  | CCc1c(C2=CCN(C(=O)c3ncnc(C)c3O)CC2C)c(=O)c2nn(-c3ccnc(OC)c3)nc2n1CC(=O)NC12CC(C(C)C)(C1)C2 (single isomer, unassigned) [I-97] |
|  | 5 to 50 | 500 to 2000 | CCc1c(C2=CCN(C(=O)c3ncnc(C)c3O)CC2C)c(=O)c2nn(-c3ccnc(OC)c3)nc2n1CC(=O)NC12CC(C(C)C)(C1)C2 (single isomer, unassigned) [I-98] |
| ≤ 500 |  |  | CCc1c(N2CCN(C(=O)c3c(OC)ncc(C4CC4)c3O)CC2)c(=O)c2nn(-c3ccnc(OC)c3)nc2n1CC(=O)NC12CC(C(C)C)(C1)C2 [I-83, 2-{6-[4-(5-cyclopropyl-4-hydroxy-2-methoxypyridine-3-carbonyl)piperazin-1-yl]-5-ethyl-2-(2-methoxypyridin-4-yl)-7-oxo-2H,4H,7H-[1,2,3]triazolo[4,5-b]pyridin-4-yl}-N-[3-(propan-2-yl)bicyclo[1.1.1]pentan-1-yl]acetamide] |

From patent US20250206738A1, “WRN INHIBITORS” (Nimbus Wadjet, Inc., priority 2023, published 2025)
